Measured values reported in patent US9469650B2, “Melampomagnolide B derivatives” (BOARD OF TRUSTEES OF THE UNIVERSITY OF ARKANSAS, priority 2013, dated 2016).

Assays:
HCT-116 = experiment: panel of 60 human tumor cell lines, growth inhibition (Colon Cancer); conditions: HCT-116
SR = experiment: panel of 60 human tumor cell lines, growth inhibition (Leukemia)
786-0 = experiment: panel of 60 human tumor cell lines, growth inhibition (Renal Cancer); conditions: 786-0
UO-31 = experiment: as above; conditions: UO-31
A498 = experiment: as above; conditions: A498
SF-268 = experiment: panel of 60 human tumor cell lines, growth inhibition (CNS Cancer); conditions: SF-268
MDA-MB-468 = experiment: panel of 60 human tumor cell lines, growth inhibition (Breast Cancer); conditions: MDA-MB-468
TK-10 = experiment: panel of 60 human tumor cell lines, growth inhibition (Renal Cancer); conditions: TK-10
MOLT-4 = experiment: panel of 60 human tumor cell lines, growth inhibition (Leukemia); conditions: MOLT-4
SNB-19 = experiment: panel of 60 human tumor cell lines, growth inhibition (CNS Cancer); conditions: SNB-19

With `C=C1C(=O)O[C@H]2[C@H]1CC/C(COC(=O)N1CCC(F)(F)CC1)=C\CC[C@@]1(C)O[C@@H]21` [JVM 2-66] the “Percent Growth” value (HCT-116; Log10 Concentration −5.0) was −65%, the “Percent Growth” value (HCT-116; Log10 Concentration −6.0) was 70% and the “Percent Growth” value (HCT-116; Log10 Concentration −7.0) was 93%. For the same compound, the “Percent Growth” value (HCT-116; Log10 Concentration −8.0) was 99%, the GI50 (SR) was 1380 nM and the TGI (SR) was 7.24E−6. For the same compound, the “Percent Growth” value (SR; Log10 Concentration −4.0) was −38%, the “Percent Growth” value (SR; Log10 Concentration −5.0) was −10% and the “Percent Growth” value (SR; Log10 Concentration −6.0) was 60%. The “Percent Growth” value (SR; Log10 Concentration −7.0) was 87%, the “Percent Growth” value (SR; Log10 Concentration −8.0) was 94% and the GI50 (786-0) was 3670 nM. The TGI (786-0) was 1.50E−5, the “Percent Growth” value (786-0; Log10 Concentration −4.0) was −81% and the “Percent Growth” value (786-0; Log10 Concentration −5.0) was 17%. The “Percent Growth” value (786-0; Log10 Concentration −6.0) was 93%, the “Percent Growth” value (786-0; Log10 Concentration −7.0) was 91% and the “Percent Growth” value (786-0; Log10 Concentration −8.0) was 97%. For the same compound, the GI50 (UO-31) was 1990 nM, the TGI (UO-31) was 5.44E−6 and the “Percent Growth” value (UO-31; Log10 Concentration −4.0) was −88%. For the same compound, the “Percent Growth” value (UO-31; Log10 Concentration −5.0) was −30%, the “Percent Growth” value (UO-31; Log10 Concentration −6.0) was 84% and the “Percent Growth” value (UO-31; Log10 Concentration −7.0) was 86%. For the same compound, the “Percent Growth” value (UO-31; Log10 Concentration −8.0) was 80%, the GI50 (A498) was 1590 nM and the TGI (A498) was 6.87E−6. For the same compound, the “Percent Growth” value (A498; Log10 Concentration −4.0) was −93%, the “Percent Growth” value (A498; Log10 Concentration −5.0) was −13% and the “Percent Growth” value (A498; Log10 Concentration −6.0) was 66%. The “Percent Growth” value (A498; Log10 Concentration −7.0) was 73%, the “Percent Growth” value (A498; Log10 Concentration −8.0) was 84% and the GI50 (SF-268) was 10700 nM. For the same compound, the TGI (SF-268) was 2.47E−5, the “Percent Growth” value (SF-268; Log10 Concentration −4.0) was −84% and the “Percent Growth” value (SF-268; Log10 Concentration −5.0) was 54%. The “Percent Growth” value (SF-268; Log10 Concentration −6.0) was 95%, the “Percent Growth” value (SF-268; Log10 Concentration −7.0) was 93% and the “Percent Growth” value (SF-268; Log10 Concentration −8.0) was 95%. The GI50 (MDA-MB-468) was 578 nM, the TGI (MDA-MB-468) was 2.65E−6 and the “Percent Growth” value (MDA-MB-468; Log10 Concentration −4.0) was −75%. For the same compound, the “Percent Growth” value (MDA-MB-468; Log10 Concentration −5.0) was −48%, the “Percent Growth” value (MDA-MB-468; Log10 Concentration −6.0) was 36% and the “Percent Growth” value (MDA-MB-468; Log10 Concentration −7.0) was 96%. For the same compound, the “Percent Growth” value (MDA-MB-468; Log10 Concentration −8.0) was 88%, the GI50 (TK-10) was 2600 nM and the TGI (TK-10) was 6.55E−6. For the same compound, the “Percent Growth” value (TK-10; Log10 Concentration −4.0) was −96%, the “Percent Growth” value (TK-10; Log10 Concentration −5.0) was −23% and the “Percent Growth” value (TK-10; Log10 Concentration −6.0) was 102%. For the same compound, the “Percent Growth” value (TK-10; Log10 Concentration −7.0) was 95%, the “Percent Growth” value (TK-10; Log10 Concentration −8.0) was 94% and the GI50 (MOLT-4) was 2050 nM. For the same compound, the TGI (MOLT-4) was 5.71E−6, the “Percent Growth” value (MOLT-4; Log10 Concentration −4.0) was −39% and the “Percent Growth” value (MOLT-4; Log10 Concentration −5.0) was −27%. The “Percent Growth” value (MOLT-4; Log10 Concentration −6.0) was 85%, the “Percent Growth” value (MOLT-4; Log10 Concentration −7.0) was 85% and the “Percent Growth” value (MOLT-4; Log10 Concentration −8.0) was 94%. For the same compound, the GI50 (SNB-19) was 12800 nM, the TGI (SNB-19) was 2.84E−5 and the “Percent Growth” value (SNB-19; Log10 Concentration −4.0) was −79%. The “Percent Growth” value (SNB-19; Log10 Concentration −5.0) was 66%, the “Percent Growth” value (SNB-19; Log10 Concentration −6.0) was 89% and the “Percent Growth” value (SNB-19; Log10 Concentration −7.0) was 91%. For the same compound, the “Percent Growth” value (SNB-19; Log10 Concentration −8.0) was 93%.
